Reference: article PMC12265377, “CC48 a new CB2R agonist/FAAH inhibitor dual drug blocks gastric cancer progression and overcomes paclitaxel resistance” (Journal of Experimental & Clinical Cancer Research : CR, 2025)
Where two headings read alike, the source gives them in different places.

How the values were obtained:
[1] = target: CB2R; parameters: method as in PMID 7776818, PMID 36542836, PMID 36657299, PMID 20393015; details: ± SEM; read-out: CB2R affinity Ki; cited from earlier work
[2] = test system: CB2R; parameters: method as in PMID 7776818, PMID 10188977, PMID 36657299, PMID 20393015; details: cited from earlier work
[3] = test system: HGC27-S cells; assay: MTT cytotoxicity assay; format: cell-based, human; details: read-out: Cytotoxic activity IC50±SEM
Protocol: (§1) Cell viability was checked with the MTT assay at 48 h and 72 h [24]in HGC27-S/R and AGS gastric cancer cell lines. On day 1, 5000 cells/well were seeded into 96-well plates in a volume of 100 µL. On day 2, each drug was added at the concentrations: 0.1µM, 1µM, 10µM, 30µM, 50µM, 100µM. In all the experiments, the various drug-solvents (ethanol, DMSO) were added in each control to evaluate a possible solvent cytotoxicity. After the established incubation time with drugs (48 h, 72 h), MTT (0.5 mg/mL) was added to each well, and after 3 h incubation at 37 °C, the supernatant was removed. The formazan crystals were solubilized using 100 µL of DMSO and the absorbance values at 570 and 630 nm were determined on the microplate reader Victor 3 from PerkinElmer Life Sciences. Results are expressed as mean ± SD of 3 independent experiments in triplicate.

[4] = test system: AGS cells; assay: MTT cytotoxicity assay; format: cell-based, human; details: read-out: Cytotoxic activity IC50±SEM
Protocol: as §1

[5] = test system: HGC27-R cells; assay: MTT cytotoxicity assay; format: cell-based, human; details: read-out: Cytotoxic activity IC50±SEM
Protocol: as §1

[6] = target: P-gp (Homo sapiens, UniProt P08183); assay: P-gp interaction assay (Calcein-AM, MDCK-MDR1 cells)
Protocol: This experiment was carried out as described by Contino et al. with minor modifications. MDCK-MDR1 cells, stably overexpressing P-gp, (30.000 cells per well) were seeded into black CulturePlate96/wells plate with 100 µL medium and allowed to become confluent overnight. Each test compound solubilized in culture medium was added to cell monolayers, reaching the tested final concentrations (ranging from 0.1 to 100 µM). Each 96/wells plate was incubated at 37 °C for 30 min. […] Each well was washed 3 times with ice cold PBS. […] In these experimental conditions, Calcein cell accumulation in the absence and presence of tested compounds was evaluated and the fluorescence basal level was estimated in untreated cells. In treated wells the increase of fluorescence compared to basal level was measured. EC50 values were determined on the fluorescence increase percentage versus log [dose].

[7] = test system: HGC27-S cells; assay: Western blot of proliferation pathway proteins; format: cell-based, human; details: 48 h, 6 µM AM630, 10 µM agonists
Protocol: Western Blotting analysis was performed as previously described in both HGC27-S/R and AGS cells. Briefly, for each experimental condition the cells were lysed in ice-cold lysis buffer (50 mM Tris, 10 mM EDTA, 1% v/v Triton-X100), supplemented with the protease/phosphatase inhibitor cocktail set (Merck KGaA, Darmstadt, Germany), incubated on ice for 15 min and centrifuged at 13,000 × g for 15 min at 4 °C. Protein extracts were quantified by Micro BCA™ Protein Assay Kit (Thermo Fisher Scientific Inc., MA USA) and 40 µg of total protein extract was loaded on SDS-PAGE and immunoblotted with the following antibodies: CB1R and CB2R (1:500, rabbit polyclonal, Abcam, Cambridge, UK), P-TSC2 (Ser939) and TSC2 (1:1000Cell Signaling, Beverly, MA, USA), PI3K (1:1000Cell Signaling, Beverly, MA, USA), P-P70 (Thr389) and P70 (1:1000Cell Signaling, Beverly, MA, USA), P-Akt (Ser473 Thr308) and Akt (1:1000Cell Signaling, Beverly, MA, USA), P-S6 (Ser235/236) and S6 (1:1000Cell Signaling, Beverly, MA, USA), 4EBP1(1:1000Cell Signaling, Beverly, MA, USA), P-ERK(Thr202/Tyr204) and ERK (1:1000Cell Signaling, Beverly, MA, USA), PPRγ (1:1000Cell Signaling, Beverly, MA, USA), Phospho-SAPK/JNK (Thr183/Tyr185) and JNK2 (1:1000 Cell Signaling, Beverly, MA, USA), Phospho-c-Jun (Ser63) and c-Jun (1:1000 Cell Signaling, Beverly, MA, USA), caspase 3/7 (1:1000 Cell Signaling, Beverly, MA, USA), Phospho-βcatenin (Ser675) and βcatenin (1:1000 Cell Signaling, Beverly, MA, USA), vimentin (1:1000Cell Signaling, Beverly, MA, USA), P-cofillin (Ser3) and cofillin (1:1000Cell Signaling, Beverly, MA, USA), actin (1:4000Cell Signaling, Beverly, MA, USA). Subsequently, the membranes were incubated with the corresponding horseradish peroxidase (HRP)-conjugated secondary antibodies (Bio-Rad, Hercules, CA, USA). An enhanced chemiluminescence kit (Bio-Rad, Hercules, CA, USA) was used. […] Total protein expression was quantified using the ImageJ software (http://rsb.info.nih.gov/ij/). […]

[8] = test system: HGC27-S cells; assay: Muse caspase 3/7 activation assay; format: cell-based, human; details: 48 h
Description: (§2) After the specified drug treatments, the cells were processed using the Muse Annexin V/Dead Cell Assay Kit (Luminex Corporation, Austin, USA) for quantitative analysis of live, early/ late apoptotic, and dead cells on a Muse Cell Analyzer. Briefly, the assay utilized Annexin V to detect phosphatidylserine on the external membrane of apoptotic cells. The fluorescent signal emitted by dye-conjugated antibodies was detected by flow cytometry technology (Muse Cell Analyzer, Luminex Corporation, Austin, USA). 7-Amino-Actinomycin D (7-AAD) dead cell marker was also used. The cells were then analyzed according to the user’s guide. […] After 48 h treatments the cells were processed according to the user’s guide and analyzed with the Muse caspase-3/7 kit (Millipore).The assay provides the relative percentage of living, early/late apoptotic or dead cells.

[9] = test system: NCI-N87 cells; assay: Muse caspase 3/7 activation assay; format: cell-based, human
Description: as §2

[10] = test system: HGC27-R cells; assay: Muse caspase 3/7 activation assay; format: cell-based, human; details: 48 h
Description: as §2

[11] = read-out: P-gp activity, EC50, ± SEM, MDCK-MDR1 cells, Calcein-AM
[12] = combination with 4 nM PTX, PTX alone 26.2%
[13] = single treatment (4 nM PTX, 6 µM AM630, 10 µM others), untreated 13.05%
[14] = NCI-N87, combination with 2 nM PTX, PTX alone 14.6%
[15] = NCI-N87, single treatment (2 nM PTX, 6 µM AM630, 10 µM others), untreated 6.35%
[16] = single treatment (4 nM PTX, 6 µM AM630, 10 µM others), untreated 18.9%

P-gp, sequence (P08183 whole entry): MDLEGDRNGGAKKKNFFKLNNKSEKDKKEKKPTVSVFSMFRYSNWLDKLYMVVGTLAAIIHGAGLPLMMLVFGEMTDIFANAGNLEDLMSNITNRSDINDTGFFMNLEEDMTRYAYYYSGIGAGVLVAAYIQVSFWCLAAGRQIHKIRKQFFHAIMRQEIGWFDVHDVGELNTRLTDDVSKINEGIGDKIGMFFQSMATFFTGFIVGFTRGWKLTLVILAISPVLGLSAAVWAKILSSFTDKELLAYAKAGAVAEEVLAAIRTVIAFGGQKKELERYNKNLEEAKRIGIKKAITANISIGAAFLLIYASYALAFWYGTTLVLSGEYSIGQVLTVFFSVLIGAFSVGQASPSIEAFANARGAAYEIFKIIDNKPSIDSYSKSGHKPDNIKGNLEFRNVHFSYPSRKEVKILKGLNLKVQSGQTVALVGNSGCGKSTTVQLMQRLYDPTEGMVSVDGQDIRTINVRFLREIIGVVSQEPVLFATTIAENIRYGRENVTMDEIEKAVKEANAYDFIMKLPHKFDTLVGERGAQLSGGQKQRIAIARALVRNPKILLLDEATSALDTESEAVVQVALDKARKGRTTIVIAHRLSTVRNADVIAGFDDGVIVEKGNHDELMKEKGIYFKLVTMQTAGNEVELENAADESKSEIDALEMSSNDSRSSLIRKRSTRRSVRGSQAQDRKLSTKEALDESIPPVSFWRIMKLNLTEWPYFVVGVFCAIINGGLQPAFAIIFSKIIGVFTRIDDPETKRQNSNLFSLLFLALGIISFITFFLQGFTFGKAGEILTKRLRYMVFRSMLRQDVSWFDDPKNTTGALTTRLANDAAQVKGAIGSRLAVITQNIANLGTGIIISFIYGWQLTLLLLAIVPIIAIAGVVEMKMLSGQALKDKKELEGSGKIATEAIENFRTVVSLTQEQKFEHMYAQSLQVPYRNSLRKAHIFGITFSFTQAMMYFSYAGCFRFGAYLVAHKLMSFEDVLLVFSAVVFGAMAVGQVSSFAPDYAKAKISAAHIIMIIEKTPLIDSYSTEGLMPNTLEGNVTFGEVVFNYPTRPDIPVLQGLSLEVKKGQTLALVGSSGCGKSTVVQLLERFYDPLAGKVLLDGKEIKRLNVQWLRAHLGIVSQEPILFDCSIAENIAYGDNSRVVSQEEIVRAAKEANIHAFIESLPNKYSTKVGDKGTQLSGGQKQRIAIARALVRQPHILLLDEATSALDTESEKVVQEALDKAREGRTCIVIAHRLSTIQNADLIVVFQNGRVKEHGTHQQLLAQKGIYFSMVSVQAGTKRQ

| SMILES | Ki [1] | EC50 [2] | IC50 ([3]; 48h) | IC50 ([3]; 72h) | IC50 ([4]; 48h) | IC50 ([4]; 72h) | IC50 ([5]; 48h) | IC50 ([5]; 72h) | interaction with P-gp (in words) ([6]; MDCK-MDR1 cells, Calcein-AM) | EC50 [6, 11] | expression/activation of PI3K/Akt/mTOR and ERK1/2 pathway proteins (western blot) [7] | apoptotic cells (caspase 3/7 activation) [8, 12] | apoptotic cells (caspase 3/7 activation) [8, 13] | cells with activated caspase 3/7 [9, 14] | cells with activated caspase 3/7 [9, 15] | apoptotic cells (caspase 3/7 activation) ([10]; combination with 4 nM PTX) | apoptotic cells (caspase 3/7 activation) [10, 16] | also measured |
| --- | --- | --- | --- | --- | --- | --- | --- | --- | --- | --- | --- | --- | --- | --- | --- | --- | --- | --- |
| COc1ccc(C(=O)c2c(C)n(CCN3CCOCC3)c3cc(I)ccc23)cc1 [AM630, reference compound] | 0.0312 µM | 0.0009 µM | 20.4 µM | 13.7 ± 1.4 µM | 13.4 µM | 7.5 ± 1.2 µM | 19.6 ± 6.15 µM | 19.1 ± 0.93 µM | low interaction with the pump | 16.8 ± 3.2 µM | significant decrease in PI3K protein expression | 44.3% | only a slight increase | 15.9% | 9.5% | 62.4% | 32.9% | – |
| CCCCCNc1ccccc1C(=O)NC12CC3CC(CC(C3)C1)C2 [ASF151] | 0.0557 ± 0.0102 µM | 0.56 µM | 49 µM | 30.1 ± 0.95 µM | 33 µM | 42.3 ± 2.2 µM | 27.4 µM | 28 ± 0.63 µM | excluded interaction with P-gp | > 100 µM | no effect was detected | no further increase over PTX | 20.25% | 15.9% | 9.5% | 50.4% | 42% | – |
| O=C(NC12CC3CC(CC(C3)C1)C2)c1ccccc1OCc1ccccc1 [CC48] | 0.0148 ± 0.00449 µM | 0.124 µM | – | – | – | – | 21.01 ± 0.002 µM | – | moderate interaction with P-gp | – | significant decrease in PI3K protein expression | 62.7% | 21% | 23.3% | 17.4% | 61.4% | 33.8% | IC50 ([3]; Homo sapiens, 48h): 11.6 µM; IC50 ([3]; Homo sapiens, 72h): 14.5 ± 0.34 µM; IC50 ([4]; Homo sapiens, 48h): 57 µM; IC50 ([4]; Homo sapiens, 72h): 9.8 µM; IC50 ([5]; Homo sapiens, 48 h): 21 µM; IC50 ([5]; Homo sapiens, 72 h): 21.2 ± 0.41 µM; EC50 [6]: 7.75 ± 1.25 µM; dead cells ([8]; single treatment, untreated 6.6%): without affecting the number of dead cells; dead cells ([9]; NCI-N87, single treatment, control 5.8% / 5.6%): 10.4% |
